Laboratory results: ChEMBL document CHEMBL1153307, “Total synthesis and antihypertensive activity of (+/-)7,8-dihydroxy-3-methyl-isochromanone-4” (Bioorg Med Chem Lett, 2009)
Activity calls are given as the source filed them. The calls are words filed in the database; no cut-off is given here.

Experiments:
[1] = system: Rattus norvegicus; test: Acute antihypertensive activity in two-kidney one-clip renal hypertensive rat assessed as reduction in systolic arterial pressure at 100 mg/kg/day; assay type: functional, organism-based
[2] = system: Rattus norvegicus; test: Acute antihypertensive activity in two-kidney one-clip renal hypertensive rat assessed as reduction in diastolic arterial pressure at 100 mg/kg/day; assay type: functional, organism-based
[3] = species on record: Sus scrofa; test: Inhibition of pig lung ACE at 100 umol/L assessed as enzyme restrain rate; set-up: scale not given: the % may be the effect or the level left
[4] = species on record: Sus scrofa; test: Inhibition of pig lung ACE at 10 umol/L assessed as enzyme restrain rate; set-up: scale not given: the % may be the effect or the level left
[5] = species on record: Sus scrofa; test: Inhibition of pig lung ACE at 1 umol/L assessed as enzyme restrain rate; set-up: scale not given: the % may be the effect or the level left
[6] = species on record: Sus scrofa; test: Inhibition of pig lung ACE at 100 nmol/L assessed as enzyme restrain rate; set-up: scale not given: the % may be the effect or the level left
[7] = species on record: Sus scrofa; test: Inhibition of pig lung ACE at 10 nmol/L assessed as enzyme restrain rate; set-up: scale not given: the % may be the effect or the level left
[8] = species on record: Sus scrofa; test: Inhibition of pig lung ACE at 100 pmol/L assessed as enzyme restrain rate; set-up: scale not given: the % may be the effect or the level left
[9] = species on record: Sus scrofa; test: Inhibition of pig lung ACE at 10 pmol/L assessed as enzyme restrain rate; set-up: scale not given: the % may be the effect or the level left
[10] = species on record: Sus scrofa; test: Inhibition of pig lung ACE at 1 pmol/L assessed as enzyme restrain rate; set-up: scale not given: the % may be the effect or the level left

Activity [3] [%]	Activity [4] [%]	Activity [5] [%]	Activity [6] [%]	Activity [7] [%]	Activity [8] [%]	Activity [9] [%]	Activity [10] [%]	Compound	Activity [1]	Activity [2]
77	61	61	74	87	44	41	34	CC1OCc2c(ccc(O)c2O)C1=O (racemic)	Active	Active
94	94	95	97	96	48	47	42	C[C@H](CS)C(=O)N1CCC[C@H]1C(=O)O		
